In PubChem BioAssay (NCI):
Several values for one entry are separate records, joined by “and”; a condition that tells them apart may be missing. Identical values can stand only once.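 All cell lines were grown in 96-well plates and treated with compound for 48 hours. GI50: concentration for 50% inhibition of growth. TGI denotes the concentration required for complete inhibition of growth.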

Experiments:
Test in all cases: inhibition of tumour cell growth, NCI panel, 48 h
CCRF-CEM leukemia = system: CCRF-CEM leukemia
SK-MEL-28 melanoma = system: SK-MEL-28 melanoma
SK-MEL-5 melanoma = system: SK-MEL-5 melanoma
OVCAR-3 ovarian = system: OVCAR-3 ovarian
COLO 205 colon = system: COLO 205 colon
OVCAR-5 ovarian = system: OVCAR-5 ovarian
LOX IMVI melanoma = system: LOX IMVI melanoma
NCI/ADR-RES ovarian = system: NCI/ADR-RES ovarian
SF-295 CNS = system: SF-295 CNS
MDA-MB-435 = system: MDA-MB-435

Row | SMILES | GI50 (CCRF-CEM leukemia) | TGI (CCRF-CEM leukemia) | GI50 (SK-MEL-28 melanoma) | TGI (SK-MEL-28 melanoma) | GI50 (SK-MEL-5 melanoma) | TGI (SK-MEL-5 melanoma) | GI50 (OVCAR-3 ovarian) | TGI (OVCAR-3 ovarian) | GI50 (COLO 205 colon) | TGI (COLO 205 colon) | GI50 (OVCAR-5 ovarian) | TGI (OVCAR-5 ovarian) | GI50 (LOX IMVI melanoma) | TGI (LOX IMVI melanoma) | GI50 (NCI/ADR-RES ovarian) | TGI (NCI/ADR-RES ovarian) | GI50 (SF-295 CNS) | TGI (SF-295 CNS) | GI50 (MDA-MB-435) | TGI (MDA-MB-435)
1 | Oc1ccc(-c2nc3ccccc3s2)cc1CN(Cc1ccccn1)Cc1ccccn1 | 1.09 µM | > 100 µM | 2.35 µM | 15.3 µM | 0.556 µM | 2.27 µM | 2.73 µM | 18.1 µM | 3.4 µM | 15.2 µM | 2.92 µM | 29.8 µM | 1.21 µM | 10.7 µM | 0.359 µM | 4.22 µM | 0.468 µM | 6.87 µM | 2.24 µM | 11.3 µM
2 | Cc1nnc(-c2cccc(-c3ccc(C(=O)NCC4CC4)cc3)c2)o1 | > 25 µM | > 25 µM | > 25 µM | > 25 µM | > 25 µM | > 25 µM | > 25 µM | > 25 µM | > 25 µM | > 25 µM | > 25 µM | > 25 µM | > 25 µM | > 25 µM | > 25 µM | > 25 µM | > 25 µM | > 25 µM | > 25 µM | > 25 µM
3 | CC(C)=CCC/C(C)=C/CC/C(C)=C/CSc1ccccc1C(=O)O | 32.3 µM | > 100 µM and 74.2 µM | 25.7 µM | 62 µM and 54.3 µM | 19.6 µM | 41.5 µM and 29.5 µM |  | 33.8 µM and 30.9 µM | 36.8 µM | > 100 µM and 48.4 µM | 23.1 µM | 62.6 µM and 36.3 µM | 26.6 µM | > 68.5 µM and 35.4 µM | 34.5 µM | > 100 µM and 47.3 µM | 25.2 µM | 60.7 µM and 40 µM | 27.4 µM | 73.6 µM and 55.5 µM
4 | COc1cc(-c2cc(O)c(-c3ccc4ccccc4n3)c(=O)[nH]2)cc(OC)c1OC |  | > 30.6 µM |  | > 100 µM |  | 62.6 µM |  | > 48.9 µM |  | > 93.2 µM |  | > 94.2 µM |  | > 53.8 µM |  | > 100 µM |  | > 67.7 µM |  | 11.6 µM
5 | Cn1cnc([N+](=O)[O-])c1Sc1nc(N)nc2c1ncn2C1CC(O)C(CO)O1 (centres undefined) |  | > 100 µM |  | > 100 µM |  | 22.9 µM |  | > 36.4 µM |  | > 34.3 µM |  | > 100 µM |  | > 100 µM |  | > 100 µM |  | > 100 µM |  | > 58.8 µM
6 | Cn1c2c(c3ccc([N+](=O)[O-])cc3c1=O)C(=O)c1ccccc1-2 | > 100 µM | > 100 µM | > 100 µM | > 100 µM | > 100 µM | > 100 µM | 52.6 µM | > 100 µM | > 100 µM | > 100 µM | > 100 µM | > 100 µM | > 100 µM | > 100 µM | > 100 µM | > 100 µM | 22.7 µM | > 100 µM | 47.4 µM | > 100 µM
7 | Cc1csc(/C=C/C(=O)c2nnn(-c3ccnc4c(C(F)(F)F)cccc34)c2C)c1 | 21.9 µM | > 100 µM | 71.1 µM | > 100 µM | 17.9 µM | 57 µM | > 100 µM | > 100 µM | 41.3 µM | > 100 µM | > 100 µM | > 100 µM | 49.1 µM | > 100 µM | 47.7 µM | > 100 µM | > 100 µM | > 100 µM | 56.9 µM | > 100 µM
